Results from ChEMBL document CHEMBL5380807, “Imidazo[1,2-a]Pyridine Derivatives as Novel Dual-Target Inhibitors of ABCB1 and ABCG2 for Reversing Multidrug Resistance” (J Med Chem, 2023).
Calls of active or inactive are those of the source. The rule behind the calls is not given here.

Legend:
[1] = Cytotoxicity against human K562 cells assessed as decrease in cell survival rate incubated for 72 hrs by MTS assay; assay type: toxicity, cell-based
[2] = Cytotoxicity against human K562/A02 cells overexpressing ABCB1 assessed as decrease in cell survival rate incubated for 72 hrs by MTS assay; assay type: toxicity, cell-based
K562 [3] = assay: Reversal of ABCB1 mediated adriamycin resistance in human K562 assessed as decrease in survival rate at 1.25 to 5 uM preincubated for 1 hrs followed by adriamycin addition and measured after 72 hrs by MTS assay; assay type: functional, cell-based; conditions: dose 1.25-5 µM, time 73.0 hrs
K562/A02 [4] = assay: Reversal of ABCB1 mediated adriamycin resistance in human K562/A02 overexpressing ABCB1 assessed as decrease in survival rate at 1.25 to 5 uM preincubated for 1 hrs followed by adriamycin addition and measured after 72 hrs by MTS assay; assay type: functional, cell-based; conditions: dose 1.25-5 µM, time 73.0 hrs
K562 [5] = assay: Cytotoxicity against human K562 cells assessed as decrease in cell survival rate at 5 uM incubated for 72 hrs by MTS assay; assay type: toxicity, cell-based; conditions: k562, 72 h
K562/A02 [6] = assay: Cytotoxicity against human K562/A02 cells overexpressing ABCB1 assessed as decrease in cell survival rate at 5 uM incubated for 72 hrs by MTS assay; assay type: toxicity, cell-based; conditions: k562/a02, 72 h
K562 [7] = assay: Reversal of ABCB1 mediated adriamycin resistance in human K562 cells assessed as reduction in survival rate at 1 uM preincubated for 1 hrs followed by adriamycin addition and measured after 72 hrs by MTS assay; assay type: functional, cell-based; conditions: time 73.0 hrs
K562 [8] = assay: Reversal of ABCB1 mediated adriamycin resistance in human K562 cells assessed as reduction in survival rate at 5 uM preincubated for 1 hrs followed by adriamycin addition and measured after 72 hrs by MTS assay; assay type: functional, cell-based; conditions: time 73.0 hrs
K562/A02 [9] = assay: Reversal of ABCB1 mediated adriamycin resistance in human K562/A02 cells overexpressing ABCB1 assessed as reduction in survival rate at 1 uM preincubated for 1 hrs followed by adriamycin addition and measured after 72 hrs by MTS assay; assay type: functional; conditions: time 73.0 hrs
K562/A02 [10] = assay: Reversal of ABCB1 mediated adriamycin resistance in human K562/A02 cells overexpressing ABCB1 assessed as reduction in survival rate at 5 uM preincubated for 1 hrs followed by adriamycin addition and measured after 72 hrs by MTS assay; assay type: functional; conditions: time 73.0 hrs

SMILES | IC50 at 72 h [1] [µM] | IC50 at 72 h [2] [µM] | other results
O=C(CNCc1ccccc1)Nc1ccc(-c2nc3ccccn3c2CN2CCN(c3ccccc3)CC2)cc1 | 25.8 | 28.8 | Activity (K562 [3]): inactive; Activity (K562/A02 [4]): Active
COc1cc2c(cc1OC)CN(Cc1c(-c3ccc(NC(=O)COc4cccc5cccnc45)cc3)nc3ccccn13)CC2 | > 100 | > 100 | –
COc1cc2c(cc1OC)CN(CC(=O)Nc1ccc(-c3nc4ccccn4c3CN3CCCC3)cc1)CC2 | – | – | Activity (K562 [5]): Non-Toxic; Activity (K562/A02 [6]): Non-Toxic; Activity (K562 [7]): inactive; Activity (K562 [8]): inactive; Activity (K562/A02 [9]): Active; Activity (K562/A02 [10]): Active
COc1cc2c(cc1OC)CN(CCC(=O)Nc1ccc(-c3nc4ccccn4c3CN3CCN(c4ccccc4)CC3)cc1)CC2 | 3.31 | 13.6 | Activity (K562 [3]): Active; Activity (K562/A02 [4]): Active
COc1cc2c(cc1OC)CN(CC(=O)Nc1ccc(-c3nc4ccccn4c3CNCc3ccccc3)cc1)CC2 | – | – | Activity (K562 [5]): Non-Toxic; Activity (K562/A02 [6]): 59.82%; Activity (K562 [7]): inactive; Activity (K562 [8]): inactive; Activity (K562/A02 [9]): Active; Activity (K562/A02 [10]): Active
COc1cc2c(cc1OC)CN(Cc1c(-c3ccc(NC(=O)Cn4cnnc4)cc3)nc3ccccn13)CC2 | > 100 | > 100 | –
COc1cc2c(cc1OC)CN(Cc1c(-c3ccc(NC(=O)CN4CCN(C)CC4)cc3)nc3ccccn13)CC2 | 50.7 | > 100 | –
COc1cc2c(cc1OC)CN(Cc1c(-c3ccc(NC(=O)COc4ccc(C)cc4)cc3)nc3ccccn13)CC2 | > 100 | > 100 | Activity (K562 [3]): inactive; Activity (K562/A02 [4]): Active
O=C(/C=C/c1ccc(Cl)cc1)Nc1ccc(-c2nc3ccccn3c2CN2CCN(c3ccccc3)CC2)cc1 | > 100 | > 100 | –
COc1cc2c(cc1OC)CN(CC(=O)Nc1ccc(-c3nc4ccccn4c3CN3CCN(c4ccc(OC(F)(F)F)cc4)CC3)cc1)CC2 | – | – | Activity (K562 [5]): Non-Toxic; Activity (K562/A02 [6]): Non-Toxic; Activity (K562 [7]): inactive; Activity (K562 [8]): inactive; Activity (K562/A02 [9]): Active; Activity (K562/A02 [10]): Active
COc1cc2c(cc1OC)CN(CC(=O)Nc1ccc(-c3nc4ccccn4c3CN3CCOCC3)cc1)CC2 | – | – | Activity (K562 [5]): Non-Toxic; Activity (K562/A02 [6]): Non-Toxic; Activity (K562 [7]): Active; Activity (K562 [8]): Active; Activity (K562/A02 [9]): Active; Activity (K562/A02 [10]): Active
O=C(CCCN1CCN(c2ccccc2)CC1)Nc1ccc(-c2nc3ccccn3c2CN2CCN(c3ccccc3)CC2)cc1 | 3.72 | 7.07 | Activity (K562 [3]): Active; Activity (K562/A02 [4]): Active
O=C(CN1CCOCC1)Nc1ccc(-c2nc3ccccn3c2CN2CCN(c3ccccc3)CC2)cc1 | > 100 | > 100 | –
COc1cc2c(cc1OC)CN(CC(=O)Nc1ccc(-c3nc4ccccn4c3COCc3ccccc3)cc1)CC2 | – | – | Activity (K562 [5]): Non-Toxic; Activity (K562/A02 [6]): Non-Toxic; Activity (K562 [7]): inactive; Activity (K562 [8]): inactive; Activity (K562/A02 [9]): Active; Activity (K562/A02 [10]): Active
COc1cc2c(cc1OC)CN(Cc1c(-c3ccc(NC(=O)CN4CCN(c5ccc(OC(F)(F)F)cc5)CC4)cc3)nc3ccccn13)CC2 | 83.7 | 81.2 | –
COc1ccc(OCC(=O)Nc2ccc(-c3nc4ccccn4c3CN3CCc4cc(OC)c(OC)cc4C3)cc2)cc1 | > 100 | > 100 | –
COc1cc2c(cc1OC)CN(CC(=O)Nc1ccc(-c3nc4ccccn4c3CN(C)C)cc1)CC2 | – | – | Activity (K562 [5]): Non-Toxic; Activity (K562/A02 [6]): Non-Toxic; Activity (K562 [7]): inactive; Activity (K562 [8]): inactive; Activity (K562/A02 [9]): Active; Activity (K562/A02 [10]): Active
O=C(/C=C/c1ccccc1)Nc1ccc(-c2nc3ccccn3c2CN2CCN(c3ccccc3)CC2)cc1 | > 100 | > 100 | –
COc1cc2c(cc1OC)CN(Cc1c(-c3ccc(NC(=O)COc4ccc(Cl)cc4)cc3)nc3ccccn13)CC2 | > 100 | 83 | Activity (K562 [3]): inactive; Activity (K562/A02 [4]): Active
COc1cc2c(cc1OC)CN(Cc1c(-c3ccc(NC(=O)CCN4CCN(c5ccccc5)CC4)cc3)nc3ccccn13)CC2 | 93.1 | 30.6 | –
COc1cc2c(cc1OC)CN(CC(=O)Nc1ccc(-c3nc4ccccn4c3COCc3ccc(Cl)cc3)cc1)CC2 | – | – | Activity (K562 [5]): Non-Toxic; Activity (K562/A02 [6]): Non-Toxic; Activity (K562 [7]): Active; Activity (K562 [8]): Active; Activity (K562/A02 [9]): Active; Activity (K562/A02 [10]): Active
COc1cc2c(cc1OC)CN(Cc1c(-c3ccc(NC(=O)COc4ccc(OC(F)(F)F)cc4)cc3)nc3ccccn13)CC2 | 29.9 | 40.9 | –
CCN(CC)CC(=O)Nc1ccc(-c2nc3ccccn3c2CN2CCc3cc(OC)c(OC)cc3C2)cc1 | > 100 | > 100 | –
Cc1cccc(/C=C/C(=O)Nc2ccc(-c3nc4ccccn4c3CN3CCN(c4ccccc4)CC3)cc2)c1 | > 100 | > 100 | –

SMILES | IC50 at 72 h [1] [µM] | IC50 at 72 h [2] [µM] | other results
Cc1ccc(/C=C/C(=O)Nc2ccc(-c3nc4ccccn4c3CN3CCN(c4ccccc4)CC3)cc2)cc1 | 32.8 | > 100 | –
CCN(CC)CC(=O)Nc1ccc(-c2nc3ccccn3c2CN2CCN(c3ccccc3)CC2)cc1 | 24.3 | 40 | –
C=CCc1ccc(OCC(=O)Nc2ccc(-c3nc4ccccn4c3CN3CCc4cc(OC)c(OC)cc4C3)cc2)c(OC)c1 | > 100 | > 100 | –
O=C(CN1CCN(c2ccccc2)CC1)Nc1ccc(-c2nc3ccccn3c2CN2CCN(c3ccccc3)CC2)cc1 | > 100 | > 100 | –
COc1cccc(OCC(=O)Nc2ccc(-c3nc4ccccn4c3CN3CCc4cc(OC)c(OC)cc4C3)cc2)c1 | > 100 | > 100 | –
COc1cc2c(cc1OC)CN(Cc1c(-c3ccc(NC(=O)COc4ccccc4C)cc3)nc3ccccn13)CC2 | > 100 | > 100 | Activity (K562 [3]): inactive; Activity (K562/A02 [4]): Active
COc1cc2c(cc1OC)CN(Cc1c(-c3ccc(NC(=O)COc4ccccc4)cc3)nc3ccccn13)CC2 | > 100 | > 100 | Activity (K562 [3]): inactive; Activity (K562/A02 [4]): Active
COc1cc2c(cc1OC)CN(Cc1c(-c3ccc(NC(=O)CN(C)C)cc3)nc3ccccn13)CC2 | > 100 | > 100 | –
O=C(/C=C/c1ccc([N+](=O)[O-])cc1)Nc1ccc(-c2nc3ccccn3c2CN2CCN(c3ccccc3)CC2)cc1 | 10.7 | 48.7 | –
O=C(/C=C/c1ccc(F)cc1)Nc1ccc(-c2nc3ccccn3c2CN2CCN(c3ccccc3)CC2)cc1 | > 100 | > 100 | Activity (K562 [3]): inactive; Activity (K562/A02 [4]): Active
O=C(Cn1cnnc1)Nc1ccc(-c2nc3ccccn3c2CN2CCN(c3ccccc3)CC2)cc1 | > 100 | > 100 | –
COc1cc(/C=C/C(=O)Nc2ccc(-c3nc4ccccn4c3CN3CCN(c4ccccc4)CC3)cc2)cc(OC)c1OC | > 100 | > 100 | Activity (K562 [3]): inactive; Activity (K562/A02 [4]): Active
COc1cc2c(cc1OC)CN(Cc1c(-c3ccc(NC(=O)COc4cccc([N+](=O)[O-])c4)cc3)nc3ccccn13)CC2 | > 100 | > 100 | –
O=C(CCN1CCN(c2ccccc2)CC1)Nc1ccc(-c2nc3ccccn3c2CN2CCN(c3ccccc3)CC2)cc1 | 58.8 | 22.9 | Activity (K562 [3]): inactive; Activity (K562/A02 [4]): Active
COc1cc2c(cc1OC)CN(Cc1c(-c3ccc(NC(=O)CN4CCN(c5ccccc5)CC4)cc3)nc3ccccn13)CC2 | > 100 | > 100 | –
O=C1CCCN1c1ccc(-c2nc3ccccn3c2CN2CCN(c3ccccc3)CC2)cc1 | > 100 | > 100 | –
O=C1CCN1c1ccc(-c2nc3ccccn3c2CN2CCN(c3ccccc3)CC2)cc1 | 10.5 | 45.5 | –
CN1CCN(CC(=O)Nc2ccc(-c3nc4ccccn4c3CN3CCN(c4ccccc4)CC3)cc2)CC1 | 21.4 | 54.6 | –
COc1cc2c(cc1OC)CN(Cc1c(-c3ccc(NC(=O)/C=C/c4cc(OC)c(OC)c(OC)c4)cc3)nc3ccccn13)CC2 | > 100 | > 100 | –
COc1cc2c(cc1OC)CN(Cc1c(-c3ccc(NC(=O)CN4CCOCC4)cc3)nc3ccccn13)CC2 | > 100 | > 100 | –
COc1cc2c(cc1OC)CN(Cc1c(-c3ccc(NC(=O)COc4ccccc4Br)cc3)nc3ccccn13)CC2 | > 100 | > 100 | –
CN(C)CC(=O)Nc1ccc(-c2nc3ccccn3c2CN2CCN(c3ccccc3)CC2)cc1 | 25.2 | 51.2 | –
O=C(CCn1cnnc1)Nc1ccc(-c2nc3ccccn3c2CN2CCN(c3ccccc3)CC2)cc1 | > 100 | > 100 | –
